The subject of data set [1] is YAP-TEAD interaction. Kind of data set: SK-HEP-1 reporter assay (8xTEAD responsive elements driving NanoLuc luciferase). Format: cell-based. The note with it: Homo sapiens, SK-HEP1, SK-HEP-1 reporter assay. In outline:
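Luminescence after NanoGlo addition gave reporter activity, and IC50 values came from duplicate 10-point curves (top final concentration 30 μM, 0.3% DMSO). The cells were SK-HEP-1 with a stably integrated 8×TEAD-driven NanoLuc gene, exposed to compound for 24 h at 37 °C.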

Data set [2] relates to NCI-H226 human mesothelioma tumor cells. Kind of data set: NCI-H226 in vivo efficacy study (subcutaneous xenograft). The note with it: H2d Rag2 female mice, NCI-H226 tumors, po qd for 29 days. On the procedure: NCI-H226 In Vivo Efficacy Study
7-9-week-old H2d Rag2 female mice (own breeding, Taconic-Denmark) were inoculated subcutaneously with 5×10^6 NCI-H226 human mesothelioma tumor cells in the right flank. Tumor growth and body weight was measured twice weekly using caliper. Tumor volume was calculated using the formula TV=L×W×W/2.
When tumor volume reached approximately 75-150 mm^3, animals were randomized (Day 0) into treatment groups (n=9-10/group) and treated perorally (po) once daily (qd) for 29 days with either vehicle (20% hydroxypropyl β-cyclodextrin in 50 mM PBS pH 7.4) or Compound no. 2. Compound no. 2 was tested at dosing levels of 1, 3, 10, 30, and 100 mg/kg, respectively. Results are depicted in FIG. 1 (tumor growth over time for vehicle group and each dosage group) and FIG. 2 (final tumor volume of vehicle group and each dosage group).
Statistical analysis of tumor volumes between treatment groups was done using repeated measures analysis of covariance (RM-ANCOVA) in a linear mixed effects model followed by least-squares means pairwise comparisons.
The animal experiment was performed under regulation of the German animal welfare act and in accordance with the EU laboratory animal directive for the area of animal experiments.

Data set [3] concerns SW620 Yap KO cells. Kind of data set: Viability assay in SW620 Yap KO (Yap independent) cells, CyQUANT. Format: cell-based. The note with it: Homo sapiens, SW-620. How it is done: (§1) Viability Assay in NCI-H226 (Yap-Dependent) and SW620 Yap KO (Yap Independent) Cells
(§2) The ability of YAP-TEAD inhibitors to inhibit tumor cell growth was evaluated using two different cell lines: NCI-H226, which is a YAP dependent cell line, and SW620 cells, where YAP and TAZ were knocked out using CRISPR to generate a YAP independent cell line.
(§3) For the assay, cells were treated in duplicates with the test compounds in a 10-point dose, 1:3 dilution steps, with the top concentration starting at 30 μM (final concentration in assay). After a 96 hour incubation at 37° C., 95% rH, and 5% CO2, a cell-permeant DNA-binding dye that stains only healthy cells (CyQUANT®, Promega) was added to the cells, allowing the quantification of cell viability.
(§4) Cell Media: The NCI-H226 cells were cultured in the following media: RPMI 1640, +10% FBS, +1× GlutaMAX, +10 mM HEPES, +0.5% Pen/Strep. The SW620-KO cells were cultured in the following media: DMEM/F-12, +10% FBS, +1× GlutaMAX, +10 mM HEPES, +0.5% Pen/Strep.
(§5) Reagents: The reagents used are listed below:
(§6) Cell culture: The cells were examined using an inverted microscope to check for health, cell density, etc. To dissociate adherent cells, the monolayer of cells was washed once with pre-warmed PBS. After removing the PBS, 3 ml pre-warmed Accutase was added to a F75 flask, dispersed evenly and the flask was allowed to sit in incubator for ˜4-5 minutes.
(§7) When a single cell suspension was obtained, 7 ml of prewarmed growth media was added and resuspended with the cells. The cell suspension was transferred to a sterile 15 ml conical centrifuge tube, and spun for 5 min at 300×g, RT. The supernatant was discarded and the pellet was resuspended in 10 ml of pre-warmed growth media.
(§8) The total cell count was determined, and 20 μl of the desired cell number was added to each well of a 384 well plate using a Multidrop Combi. The plates were then incubated for 24 hours at 37° C., 95% rH, and 5% CO2.
(§9) Compound treatment: 24 hours after seeding, the cells were treated with compounds.
(§10) A 1:333 dilution of compounds, diluted in DMSO, was made to get a final concentration of 0.3% DMSO per well. To transfer the compounds to the assay plate, 120 nl was shot from Labcyte low dead volume plates to the cell plates containing 20 μl media/well with the ECHO 555 liquid handling system.
(§11) After treatment, the cells were fed with 20 μl fresh pre-warmed assay media using a Multidrop combi.
(§12) The assay plates were then incubated for 96 h at 37° C., 95% rH, and 5% CO2.
(§13) 96 h after treatment 30 μl of CyQuant® reagent was added to the assay plates using a Multidrop combi in the dark. The plates were then incubated for 1 hour at 37° C., 95% rH and 5% CO2. Thereafter, the assay plates were removed from the incubator and allowed to equilibrate to RT for 30 min in the dark without lid. Finally, they were measured using an EnVision microplate reader with a FITC bottom read program.

For data set [4], the system named is NCI-H226 cells. Kind of data set: Viability assay in NCI-H226 (Yap-dependent) cells, CyQUANT. In kind it is cell-based. The note with it: Homo sapiens. On the procedure: as §1, §2, §3, §4, §5, §6, §7, §8, §9, §10, §11, §12, §13

Molecules are shown by their SMILES.

For the compound `Cn1cc2c3cc(C(=O)O)ccc3n(-c3ccc(C(F)(F)F)cc3)c2n1` [Example 2, 2-methyl-8-[4-(trifluoromethyl)phenyl]-2H,8H-pyrazolo[3,4-b]indole-5-carboxylic acid], the concentration for half-maximal inhibition (IC50) in data set [1] is 0.001 to 0.01 µM; in data set [3], over 30 µM. Besides, the “dosing levels showing maximal tumor growth inhibition” value in data set [2] is on record as over 10 mg/kg. Also, in data set [2] (1, 3, 10, 30 and 100 mg/kg, all tested dosing levels, p-value <0.001), the “tumor growth inhibition compared to vehicle treated group” value is on record as “Significant tumor growth inhibition”.
In the case of `Cn1cc2c(n1)c1cc(C#N)ccc1n2-c1ccc(C(F)(F)F)cc1` [Example 19, 2-methyl-4-[4-(trifluoromethyl)phenyl]pyrazolo [4,3-b]indole-7-carbonitrile], the melting point is 208 to 210 °C. In addition, the IC50 in data set [4] is over 10 µM. This compound also yielded an IC50 in data set [1] of over 10 µM. In data set [3], the half-inhibitory concentration (IC50) was over 30 µM.
In the case of `C=CC(=O)Nc1ccc2c(c1)c1cn(C)nc1n2-c1ccc(C(F)(F)F)cc1` [Example 20, N-[2-methyl-8-[4-(trifluoromethyl)phenyl]pyrazolo[3,4-b]indol-5-yl]prop-2-enamide], the melting point was in the range of 223 to 224 °C. Further, the IC50 in data set [4] lay in the range of 0.1 to 1 µM. The compound further came in with an IC50 in data set [1] of 0.001 to 0.01 µM. In data set [3], this compound registered an IC50 of 10 to 30 µM.
For `C=CC(=O)NCc1ccc2c(c1)c1cn(C)nc1n2-c1ccc(C(F)(F)F)cc1` [Example 21, N—([2-methyl-8-[4-(trifluoromethyl)phenyl]pyrazolo [3,4-b]indol-5-yl]methyl)prop-2-enamide], in that order: 185 to 187 °C, 1 to 10 µM, 0.001 to 0.01 µM and 10 to 30 µM.
For `Cn1cc2c3cc(CNC(=O)CCl)ccc3n(-c3ccc(C(F)(F)F)cc3)c2n1` [Example 24, 2-chloro-N—([2-methyl-8-[4-(trifluoromethyl)phenyl]pyrazolo[3,4-b]indol-5-yl]methyl)acetamide], in that order: 221 to 222 °C, 0.1 to 1 µM, 0.1 to 10 µM and 1 to 10 µM.
For `Cc1nc2c(s1)c1cc(C(=O)O)ccc1n2-c1ccc(C(F)(F)F)cc1` [Example 25, 2-methyl-4-[4-(trifluoromethyl)phenyl]-[1,3]thiazolo[4,5-b]indole-7-carboxylic acid], in that order: 169 to 171 °C, 0.1 to 1 µM, 0.01 to 0.1 µM and 1 to 10 µM.
`Cn1cc2c3cc(C(=O)NC4CC4)ccc3n(-c3ccc(C(F)(F)F)nc3)c2n1` [Example 27, N-cyclopropyl-2-methyl-8-[6-(trifluoromethyl)pyridin-3-yl]-2H,8H-pyrazolo[3,4-b]indole-5-carboxamide] yielded a melting point of 300 °C. This compound also displayed a concentration for half-maximal inhibition (IC50) in data set [4] of 0.001 to 0.1 µM. Moreover, the IC50 in data set [1] lay within 0.001 to 0.01 µM. Moreover, the IC50 in data set [3] was over 30 µM.
For `Cn1cc2c3cc(C(=O)O[C@@H]4O[C@H](C(=O)O)[C@@H](O)[C@H](O)[C@H]4O)ccc3n(-c3ccc(C(F)(F)F)cc3)c2n1` [Example 30, (2S,3S,4S,5R,6S)-3,4,5-trihydroxy-6-{2-methyl-8-[4-(trifluoromethyl)phenyl]-2H,8H-pyrazolo[3,4-b]indole-5-carbonyloxy}oxane-2-carboxylic acid], in that order: 110 to 111 °C, 1 to 10 µM, 0.1 to 10 µM and over 30 µM.
